The source made the active and inactive calls.
Assays:
[1] = test system: Streptococcus sp. 'group A'; experiment: Streptococcus pyogenes SK(-)GAS viability under kanamycin – luminescence, BacTiterGlo, confirmation, counter-screen for streptokinase expression inhibitor project, dose response (AID 1900); format: functional, organism-based
Streptokinase A = biological target: T1, Streptokinase A (Streptococcus pyogenes serotype M1, UniProt P10520); experiment: viability-normalized secreted streptokinase activity reduction – plasminogen activation absorbance, OD405, dose response (AID 1914); format: functional, Streptococcus pyogenes M1 GAS;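 further: secreted streptokinase activity via plasminogen activation per viability signal from cell pellet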
T1 sequence (P10520 whole entry): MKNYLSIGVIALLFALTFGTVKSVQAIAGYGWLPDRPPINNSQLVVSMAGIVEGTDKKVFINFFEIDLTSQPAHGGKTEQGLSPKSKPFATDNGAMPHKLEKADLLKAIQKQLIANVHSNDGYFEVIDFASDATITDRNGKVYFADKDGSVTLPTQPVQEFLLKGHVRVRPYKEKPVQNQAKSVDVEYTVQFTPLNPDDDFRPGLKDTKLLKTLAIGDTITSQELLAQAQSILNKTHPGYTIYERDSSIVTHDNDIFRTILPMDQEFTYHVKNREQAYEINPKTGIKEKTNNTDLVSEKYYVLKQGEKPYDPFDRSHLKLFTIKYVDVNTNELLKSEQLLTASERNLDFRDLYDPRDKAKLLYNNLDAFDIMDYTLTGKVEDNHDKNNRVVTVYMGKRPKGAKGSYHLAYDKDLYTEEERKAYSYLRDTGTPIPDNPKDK

[2] = microbe, parasite or virus in culture; format: functional; conditions: Mycobacterium tuberculosis
Streptococcus = experiment: GAS UMAA2166 growth inhibition – luminescence, BacTiterGlo, counter-screen for streptokinase expression inhibitor project, dose response (AID 1915); format: functional, organism-based;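 further: potency for reduction of bacterial viability or growth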
[3] = Luminescence Cell-Based Dose Retest to Confirm Inhibitors of Cancer Stem Cells. [Related pubchem assays (depositor defined):AID2717, AID2721]; format: functional; conditions: Homo sapiens
Fatty acid synthase [4] = biological target: T2, Fatty acid synthase (Homo sapiens, UniProt P49327); experiment: inhibition of human FAS-TE enzyme activity – biochemical, endpoint fluorescence intensity, uHTS hits, dose response (AID 624327); format: functional;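 further: fluorescence from hydrolysis of an O-methyl fluorescein acyl ester substrate by the enzyme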
T2 sequence (P49327 whole entry): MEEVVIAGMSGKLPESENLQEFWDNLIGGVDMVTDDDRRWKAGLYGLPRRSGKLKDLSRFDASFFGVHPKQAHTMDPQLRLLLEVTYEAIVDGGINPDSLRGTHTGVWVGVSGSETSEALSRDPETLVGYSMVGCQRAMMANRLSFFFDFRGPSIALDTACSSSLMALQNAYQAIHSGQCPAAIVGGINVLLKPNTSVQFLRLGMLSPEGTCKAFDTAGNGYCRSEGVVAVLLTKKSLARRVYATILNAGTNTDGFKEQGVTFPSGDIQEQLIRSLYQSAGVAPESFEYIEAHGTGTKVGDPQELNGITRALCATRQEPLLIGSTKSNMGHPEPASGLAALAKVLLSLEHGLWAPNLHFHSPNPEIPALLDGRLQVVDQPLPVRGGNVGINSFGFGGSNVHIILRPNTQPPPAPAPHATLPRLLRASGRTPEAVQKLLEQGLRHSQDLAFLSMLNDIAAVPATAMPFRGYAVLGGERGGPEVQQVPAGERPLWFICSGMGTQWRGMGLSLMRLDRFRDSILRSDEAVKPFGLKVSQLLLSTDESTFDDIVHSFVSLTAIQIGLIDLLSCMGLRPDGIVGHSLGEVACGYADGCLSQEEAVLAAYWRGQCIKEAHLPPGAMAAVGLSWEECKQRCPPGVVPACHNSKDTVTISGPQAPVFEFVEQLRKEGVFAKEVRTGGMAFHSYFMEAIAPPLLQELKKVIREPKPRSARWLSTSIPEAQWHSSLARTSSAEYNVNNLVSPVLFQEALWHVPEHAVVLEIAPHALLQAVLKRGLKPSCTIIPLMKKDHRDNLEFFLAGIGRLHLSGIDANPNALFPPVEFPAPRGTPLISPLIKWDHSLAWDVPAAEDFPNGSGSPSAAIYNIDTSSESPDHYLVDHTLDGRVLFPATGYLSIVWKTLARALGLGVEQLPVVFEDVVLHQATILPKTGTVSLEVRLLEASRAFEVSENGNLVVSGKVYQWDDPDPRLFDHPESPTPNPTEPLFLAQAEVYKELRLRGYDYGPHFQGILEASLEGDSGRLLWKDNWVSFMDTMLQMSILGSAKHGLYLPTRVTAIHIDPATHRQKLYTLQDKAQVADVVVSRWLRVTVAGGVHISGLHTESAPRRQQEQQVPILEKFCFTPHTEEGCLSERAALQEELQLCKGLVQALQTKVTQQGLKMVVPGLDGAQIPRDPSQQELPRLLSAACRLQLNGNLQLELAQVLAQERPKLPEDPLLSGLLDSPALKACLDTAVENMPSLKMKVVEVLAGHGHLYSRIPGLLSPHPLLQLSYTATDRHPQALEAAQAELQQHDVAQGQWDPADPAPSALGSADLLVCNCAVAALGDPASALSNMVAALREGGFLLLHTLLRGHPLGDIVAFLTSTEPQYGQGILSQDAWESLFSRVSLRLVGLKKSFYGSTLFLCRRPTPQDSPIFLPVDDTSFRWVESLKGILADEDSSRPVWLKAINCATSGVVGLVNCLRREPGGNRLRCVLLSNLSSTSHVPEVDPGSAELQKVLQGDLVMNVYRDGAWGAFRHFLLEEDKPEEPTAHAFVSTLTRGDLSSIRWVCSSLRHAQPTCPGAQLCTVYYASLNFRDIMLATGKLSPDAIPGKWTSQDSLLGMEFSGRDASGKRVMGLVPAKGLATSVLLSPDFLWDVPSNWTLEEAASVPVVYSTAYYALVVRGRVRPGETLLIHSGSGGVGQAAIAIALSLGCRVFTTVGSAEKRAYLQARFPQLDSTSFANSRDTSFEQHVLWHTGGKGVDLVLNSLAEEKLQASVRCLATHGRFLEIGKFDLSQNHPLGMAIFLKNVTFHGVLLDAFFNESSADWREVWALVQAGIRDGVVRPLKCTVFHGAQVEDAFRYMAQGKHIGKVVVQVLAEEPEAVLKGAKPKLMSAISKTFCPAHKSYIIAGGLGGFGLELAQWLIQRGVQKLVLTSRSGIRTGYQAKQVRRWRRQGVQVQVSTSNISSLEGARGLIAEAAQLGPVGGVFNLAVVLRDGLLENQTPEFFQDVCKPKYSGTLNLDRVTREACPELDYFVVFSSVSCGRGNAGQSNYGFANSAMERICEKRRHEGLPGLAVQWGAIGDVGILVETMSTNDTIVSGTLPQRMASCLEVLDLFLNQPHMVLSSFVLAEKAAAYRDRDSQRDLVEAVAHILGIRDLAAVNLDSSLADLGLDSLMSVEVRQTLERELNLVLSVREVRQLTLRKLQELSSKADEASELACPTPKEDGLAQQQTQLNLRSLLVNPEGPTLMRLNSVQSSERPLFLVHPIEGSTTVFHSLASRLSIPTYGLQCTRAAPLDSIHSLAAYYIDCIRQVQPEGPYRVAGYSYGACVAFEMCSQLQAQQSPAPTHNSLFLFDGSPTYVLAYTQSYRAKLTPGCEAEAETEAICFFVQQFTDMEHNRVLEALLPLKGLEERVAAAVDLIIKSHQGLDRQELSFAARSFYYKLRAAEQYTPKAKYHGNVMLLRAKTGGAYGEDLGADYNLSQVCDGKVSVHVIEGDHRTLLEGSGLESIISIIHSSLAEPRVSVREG

Fatty acid synthase [5] = biological target: T2, Fatty acid synthase; experiment: inhibition of human FAS-TE enzyme activity – biochemical, kinetic fluorescence intensity, dose response (AID 624326); format: functional;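 further: rate of fluorescence rise from hydrolysis of a fluorogenic O-methyl fluorescein ester substrate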
Large T antigen = Large T antigen (Simian virus 40, UniProt P03070); format: functional, Betapolyomavirus macacae;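 further: Confirmatory-stage PubChem screen for compounds that inhibit SV40 T antigen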
Sequence of Large T antigen (P03070 whole entry): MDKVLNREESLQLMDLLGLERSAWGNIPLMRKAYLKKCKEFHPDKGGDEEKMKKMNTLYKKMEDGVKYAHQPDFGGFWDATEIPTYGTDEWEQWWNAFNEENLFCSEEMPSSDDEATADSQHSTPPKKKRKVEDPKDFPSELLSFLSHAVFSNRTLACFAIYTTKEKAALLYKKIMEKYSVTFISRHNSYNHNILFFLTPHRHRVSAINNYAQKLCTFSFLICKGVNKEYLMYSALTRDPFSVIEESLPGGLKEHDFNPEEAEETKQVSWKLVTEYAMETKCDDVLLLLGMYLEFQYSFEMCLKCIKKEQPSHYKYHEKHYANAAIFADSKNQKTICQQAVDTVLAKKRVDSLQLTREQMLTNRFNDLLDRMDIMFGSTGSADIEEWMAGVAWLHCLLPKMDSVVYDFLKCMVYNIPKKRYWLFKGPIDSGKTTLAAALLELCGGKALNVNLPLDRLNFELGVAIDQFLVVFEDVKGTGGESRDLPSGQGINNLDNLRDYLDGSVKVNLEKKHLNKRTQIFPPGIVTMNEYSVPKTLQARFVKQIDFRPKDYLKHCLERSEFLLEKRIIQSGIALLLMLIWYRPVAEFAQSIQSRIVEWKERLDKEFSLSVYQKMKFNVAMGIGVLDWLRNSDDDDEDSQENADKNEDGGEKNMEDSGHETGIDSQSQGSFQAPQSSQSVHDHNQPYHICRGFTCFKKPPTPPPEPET

cells [6] = format: functional, cell-based
cells [7] = format: functional, cell-based; remark: listed apart in the source
[8] = biological target: Induced myeloid leukemia cell differentiation protein Mcl-1 (Homo sapiens, UniProt Q07820); format: functional
Sequence of Induced myeloid leukemia cell differentiation protein Mcl-1 (Q07820 whole entry): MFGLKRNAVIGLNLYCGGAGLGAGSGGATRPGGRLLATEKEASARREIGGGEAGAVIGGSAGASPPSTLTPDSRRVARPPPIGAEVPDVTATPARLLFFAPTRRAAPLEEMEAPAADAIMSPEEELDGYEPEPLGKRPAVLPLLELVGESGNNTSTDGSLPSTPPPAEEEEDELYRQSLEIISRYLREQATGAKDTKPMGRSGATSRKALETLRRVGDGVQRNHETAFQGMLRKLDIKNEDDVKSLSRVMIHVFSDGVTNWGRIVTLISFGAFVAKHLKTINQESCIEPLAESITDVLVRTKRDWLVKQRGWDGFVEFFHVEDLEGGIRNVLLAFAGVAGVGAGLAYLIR

[9] = reduction of Shn3 3'UTR-driven luciferase in osteoblasts – cell-based, Clone20 osteoblasts, firefly luciferase, cherry-picked, dose response (AID 624132); format: functional;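 further: firefly luciferase luminescence from reporter carrying the Shn3 3'UTR in osteoblasts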
[10] = loss of viability in HepG2 cells – cell-based, CellTiter-Glo, cherry-picked, cytotoxicity control for Shn3 inhibitor project, dose response (AID 624134); format: functional
[11] = non-specific 3'UTR reporter inhibition in Clone20-Shn3RL – cell-based, Renilla luciferase, cherry-picked, counter-screen for Shn3 inhibitor project, dose response (AID 624133); format: functional
[12] = luciferase reporter signal suppression in cells – H4 neuroglioma cells, luminescence, dose response (AID 1990); format: functional, cell-based
[13] = Luminescence Cell-Based Dose Response HTS to Identify Inhibitors of 5'UTR Stem-Loop Driven Prion Protein mRNA Translation in H4 Neuroglioblastoma Cells. [Related pubchem assays: 1827 (Project Summary), 1813 (Primary HTS)]; format: functional
[14] = alpha-synuclein stem-loop luciferase translation blockers – H4 neuroglioma cells, luminescence, confirmation (AID 1988); format: functional, cell-based
HEK293 = experiment: EBV LMP1 TES2 canonical NF-kB signalling blockers – cell-based, HEK293, luciferase, cherry-pick, dose response (AID 588343); format: functional; conditions: Homo sapiens
Protein skinhead-1 = biological target: T3, Protein skinhead-1 (Caenorhabditis elegans, UniProt P34707); format: functional
T3 sequence (P34707 whole entry): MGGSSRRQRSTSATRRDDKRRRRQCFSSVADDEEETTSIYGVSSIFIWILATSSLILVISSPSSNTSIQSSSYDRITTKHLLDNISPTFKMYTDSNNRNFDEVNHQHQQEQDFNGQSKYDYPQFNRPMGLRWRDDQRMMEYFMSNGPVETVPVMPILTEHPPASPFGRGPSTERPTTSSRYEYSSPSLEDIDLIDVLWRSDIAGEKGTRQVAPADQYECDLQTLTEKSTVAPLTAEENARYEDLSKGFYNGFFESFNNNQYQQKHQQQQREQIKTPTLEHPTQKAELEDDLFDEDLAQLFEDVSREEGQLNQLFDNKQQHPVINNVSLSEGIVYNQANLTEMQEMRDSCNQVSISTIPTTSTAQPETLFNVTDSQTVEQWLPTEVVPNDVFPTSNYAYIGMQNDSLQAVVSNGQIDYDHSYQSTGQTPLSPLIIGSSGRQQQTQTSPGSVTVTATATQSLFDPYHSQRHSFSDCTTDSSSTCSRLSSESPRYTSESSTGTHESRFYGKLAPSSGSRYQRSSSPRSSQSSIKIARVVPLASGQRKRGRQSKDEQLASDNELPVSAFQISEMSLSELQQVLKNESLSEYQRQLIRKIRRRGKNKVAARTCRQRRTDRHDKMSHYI

INS1 = experiment: INS-1E survival protection against cytokine death – cell-based, luminescence, retest, dose response (AID 449756); format: functional; conditions: Rattus norvegicus;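 further: cell death triggered by IL-1 beta plus TNF-alpha plus IFN-gamma mixture; protective hits raise ATP signal compared with cytokine alone wells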
[15] = biological target: T4, Heat shock factor protein 1 (Mus musculus, UniProt P38532); experiment: enhancement of HSF1-driven luciferase signal – cell-based, NIH3T3, luminescence, dose retest, confirmation (AID 435004); format: functional;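 further: stress induced by proteasome inhibitor MG132 added 30 min after compound; luciferase reporter driven by HSF1 response element in NIH3T3 cells; actives raise luminescence as potentiators of the MG132 stress response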
T4 sequence (P38532 whole entry): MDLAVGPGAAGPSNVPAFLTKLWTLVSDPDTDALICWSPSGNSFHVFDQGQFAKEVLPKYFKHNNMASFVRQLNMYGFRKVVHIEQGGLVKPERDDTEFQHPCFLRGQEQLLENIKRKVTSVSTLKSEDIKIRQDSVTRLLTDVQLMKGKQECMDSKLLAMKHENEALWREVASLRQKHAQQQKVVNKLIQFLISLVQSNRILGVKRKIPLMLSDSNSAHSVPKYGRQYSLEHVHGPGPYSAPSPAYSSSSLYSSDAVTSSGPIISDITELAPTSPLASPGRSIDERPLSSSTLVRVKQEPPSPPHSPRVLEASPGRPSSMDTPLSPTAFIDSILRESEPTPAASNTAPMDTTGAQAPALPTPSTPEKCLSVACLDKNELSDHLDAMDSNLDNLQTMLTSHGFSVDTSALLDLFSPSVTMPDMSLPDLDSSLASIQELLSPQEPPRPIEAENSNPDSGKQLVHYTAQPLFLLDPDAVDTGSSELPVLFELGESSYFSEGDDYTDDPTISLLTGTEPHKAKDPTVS

Q: For `N#Cc1c(-c2ccccc2)c(-c2ccccc2)nn(CC(=O)NNC(=O)Nc2ccc(Cl)c(Cl)c2)c1=O`, which EC50 [1] is on record?
A: 5.78 µM (active)

Q: And the EC50 (Streptokinase A)?
A: 4 µM (active)

Q: What about the CC50 [2] of the same compound?
A: 32.9 µM (active)

Q: And the EC50 (Streptococcus)?
A: 103 µM (active)

Q: And the AC50 [3]?
A: 1.75 µM (active)

Q: And the IC50 (Fatty acid synthase [4])?
A: 7.91 µM (active)

Q: And the IC50 (Fatty acid synthase [5])?
A: 8.07 µM (active)

Q: For `Oc1ccc(N2CCN(C(c3ccccn3)c3nnnn3C3CCCC3)CC2)cc1` (configuration not stated), which IC50 (Large T antigen) is on record?
A: 6.25 µM (active)

Q: What does the source list for `N#Cc1ccccc1S(=O)(=O)N1CCN(c2cnccn2)CC1`?
A: EC50 (cells [6]): > 350 µM (not active); EC50 (cells [7]): > 350 µM (not active)

Q: Which IC50 [8] does the source give for `O=C(Nc1ccccc1Cl)c1cnccn1` here?
A: 8.55 µM (not active)

Q: Which AC50 [9] does the source give for `Cc1ccc(-n2ncc3c(N4CCN(c5ccc(F)cc5)CC4)ncnc32)c(C)c1` here?
A: 3.24 µM (active)

Q: And the AC50 [10]?
A: 2.94 µM (active)

Q: And the AC50 [11]?
A: 5.66 µM (active)

Q: For `O=Cc1cccn1-c1ccc(O)cc1`, which IC50 (Large T antigen) is on record?
A: > 100 µM (active)

Q: With `O=S(=O)(c1ccc(C(F)(F)F)cc1)N1CCC(c2nc(O)c3nnn(Cc4ccc(F)cc4)c3n2)CC1` as the compound, how does the EC50 (cells [6]) read?
A: > 350 µM (not active)

Q: What about the EC50 (cells [7]) of the same compound?
A: > 350 µM (not active)

Q: For `O=C(Nc1cnc2ccccn2c1=O)c1ccc(Cl)cc1Cl`, which EC50 [12] is on record?
A: 10.1 µM (inconclusive)

Q: What about the EC50 [13] of the same compound?
A: 5 µM (active)

Q: And the EC50 [14]?
A: 5.78 µM (active)

Q: What about the AC50 (HEK293) of the same compound?
A: 2.55 µM (active)

Q: With `CCCn1cnc2cc(NCc3cccc(OC)c3O)ccc21` as the compound, how does the IC50 (Large T antigen) read?
A: 22.1 µM (active)

Q: And the IC50 (Protein skinhead-1)?
A: > 100 µM (inactive)

Q: Which AC50 [9] does the source give for `COC(=O)C1=C(c2ccc(-c3ccccc3)c(F)c2)C[C@@H]2CC[C@H]1N2C(=O)NCC1CC1` here?
A: 4.32 µM (active)

Q: And the AC50 [10]?
A: > 70 µM (inactive)

Q: What about the AC50 [11] of the same compound?
A: 30.6 µM (active)

Q: For `Cc1ccccc1/C=C/C(=O)c1ccc([N+](=O)[O-])o1`, which EC50 [1] is on record?
A: 2.37 µM (active)

Q: And the EC50 (Streptokinase A)?
A: 50.9 µM (inconclusive)

Q: What about the IC50 (Large T antigen) of the same compound?
A: 83.2 µM (active)

Q: What about the EC50 (Streptococcus) of the same compound?
A: 10.6 µM (active)

Q: And the AC50 (INS1)?
A: 3.15 µM (active)

Q: What does the source list for `CN1CCN(S(=O)(=O)c2ccc(Sc3nnnn3-c3ccccc3)c([N+](=O)[O-])c2)CC1`?
A: AC50 [9]: 3.9 µM (active); AC50 [10]: > 70 µM (inactive); AC50 [11]: 7.28 µM (active)

Q: With `Cc1ccc(C(CC(=O)O)C2CCOC(C)(C)C2)cc1` (configuration not stated) as the compound, how does the EC50 (cells [6]) read?
A: > 350 µM (not active)

Q: And the EC50 (cells [7])?
A: > 350 µM (not active)

Q: Which results are given for `c1cnc(N2CCN(c3ccc4ccccc4n3)CC2)nc1`?
A: EC50 (cells [6]): > 350 µM (not active); EC50 (cells [7]): 11.9 µM (active); EC50 [15]: > 260 µM (inactive)

Q: What does the source list for `O=S(=O)(c1cccc(C(F)(F)F)c1)N1CCC(c2nc(O)c3nnn(Cc4cccc(F)c4)c3n2)CC1`?
A: EC50 (cells [6]): > 350 µM (not active); EC50 (cells [7]): > 350 µM (not active)

Q: With `COCCn1c(SCC(=O)NCc2ccco2)nnc1-c1c[nH]c2ccccc12` as the compound, how does the AC50 (HEK293) read?
A: 283 µM (active)

— ChEMBL document CHEMBL1201862, “PubChem BioAssay data set” (2004)
